According to patent publication US20160022694A1, “A Method of Improving the Efficiency of Beef Production from Bovine Animals” (INTERVET INTERNATIONAL B.V., priority 2013, published 2016):
Marks after values point to notes of the source that are not given here.

Legend:
finishing steers [1] = assay: Feedlot growth performance study: component feeding vs continuous feeding of Zilmax; assay type: in vivo, cattle; conditions: for Final body weight: 20 days, LS mean
Excerpt: A multi-center, randomized complete block design was used. Four study sites enrolled 800 to 1000 head of cattle each. Cattle were randomized to 10 blocks of 80 to 100 head based on body weight, then penned in groups of 16 to 20 head per pen. Finishing steers that were visually estimated to be approximately 58 days from finish were used in the studies. Each site enrolled 800 to 1000 head of cattle. Cattle were randomized to 10 blocks of 80 to 100 head and, within block, to treatment group based on body weight. Study pens consisted of 16 to 20 head per pen. The study was broken into three periods: acclimation, Zilmax® treatment and withdrawal. Between study sites, the number of acclimation days was variable but the Zilmax feeding period was 20 days at all study sites. The withdrawal period ranged from 3 to 5 days across the sites. More than one start time was allowed to accommodate enrollment of the study animals. If blocks were initiated at different times, blocks may have been acclimated for different lengths of time. The minimum length of the acclimation period was 31 days. All animals were permitted ad libitum feed consumption according to standard study site procedure. Feed delivery occurred twice daily. Daily feed issue was recorded on a per pen basis from the start of the acclimation period and until final weights were measured before shipment for harvest. Feed batching and delivery were documented. A component feeding method was tested in the studies by thoroughly mixing the daily zilpaterol dose in the first feeding of the Type C feed prior to delivery to the animal for Groups 2, 3 and 4. […] The daily component feed amount (i.e., the first feeding each day of the Type C feed) was set at approximately 10 lb of feed dry matter (DM) per head to simulate commercial practice for component feeding. Therefore, all study pens were fed approximately 10 lb of DM per head in the first feeding of the day. Control steers were fed the Type C feed that contained no Zilmax. The component feeding treatment groups were fed the Type C feed that contained 60, 75, or 90 mg/head/day. All cattle in the control and three component feeding treatments were fed the non-medicated Type C complete feed (i.e., without Zilmax®) in a second feeding each day. Steers in the 6.8 g/ton Zilmax® treatment group received the Type C complete feed containing this level of Zilmax® in both feedings each day during the 20-day Zilmax® feeding period. Individual animal weights were measured prior to the start of the Acclimation period for use in randomization of animals to treatment groups and pens. The Acclimation period was used to stabilize feed intake and behavioral aspects of the newly sorted pen groups of cattle prior to feeding Zilmax®. Individual weights were measured and unconsumed feed was removed from the feed bunks and weighed on the day of initiation of Zilmax® feeding. After a 20-day Zilmax® feeding period, unconsumed feed was removed from the feed bunks, weighed, and discarded. All animals in the five treatment groups were fed a non-medicated feed (i.e., without Zilmax®) for a minimum 3 day withdrawal period prior to harvest. Unconsumed feed remaining in the feed bunks was removed and weighed on the day of final body weight measurement. Cattle were handled throughout the study using procedures which were typical of commercial practices. Cattle were exposed to ambient weather conditions during the studies. Feed was not restricted prior to weighing or harvest. The primary variables in this study were average daily body weight gain (ADG) and feed efficiency (FE) calculated for the Zilmax® feeding period of the study (Day 0 through end of withdrawal period) and for the entire study (start of the acclimation period to end of withdrawal period). ADG was calculated as a pen average from the ADG of individual animals within the pen using the equation: ADG=(final body weight−Day 0 body weight)/(number of days between the body weight measurements). […]

finishing steers [2] = assay: Secondary (carcass) variables after Zilmax component or continuous feeding; assay type: in vivo, cattle; conditions: for Marbling Score: 400-699 = choice
Excerpt: A multi-center, randomized complete block design was used. Four study sites enrolled 800 to 1000 head of cattle each. Cattle were randomized to 10 blocks of 80 to 100 head based on body weight, then penned in groups of 16 to 20 head per pen. Finishing steers that were visually estimated to be approximately 58 days from finish were used in the studies. Each site enrolled 800 to 1000 head of cattle. Cattle were randomized to 10 blocks of 80 to 100 head and, within block, to treatment group based on body weight. Study pens consisted of 16 to 20 head per pen. A component feeding method was tested in the studies by thoroughly mixing the daily zilpaterol dose in the first feeding of the Type C feed prior to delivery to the animal for Groups 2, 3 and 4. […] The daily component feed amount (i.e., the first feeding each day of the Type C feed) was set at approximately 10 lb of feed dry matter (DM) per head to simulate commercial practice for component feeding. Therefore, all study pens were fed approximately 10 lb of DM per head in the first feeding of the day. Control steers were fed the Type C feed that contained no Zilmax. The component feeding treatment groups were fed the Type C feed that contained 60, 75, or 90 mg/head/day. All cattle in the control and three component feeding treatments were fed the non-medicated Type C complete feed (i.e., without Zilmax®) in a second feeding each day. Steers in the 6.8 g/ton Zilmax® treatment group received the Type C complete feed containing this level of Zilmax® in both feedings each day during the 20-day Zilmax® feeding period. DMI was calculated for the two study periods (start of the acclimation period or Day 0 to the end of the withdrawal period). The following carcass data were collected or calculated: marbling score, USDA quality grade or equivalent, hot carcass weight, ribeye area, backfat thickness (preliminary yield grade and adjusted preliminary yield grade), and USDA yield grade or equivalent. Dressing percent was calculated. Variables continuous in nature were subjected to the analysis described for the primary outcome variables. Outcomes evaluated included: initial body weight, final body weight, weight gain (Day 0 to final date), ADG (acclimation period, initial date to final date), ADG (shrunk, Day 0 to final date and initial date to final date), DMI (acclimation, initial date to final date), as fed intake (Zilmax® period), carcass gain (Day 0 to final date), dressing percent, hot carcass weight, marbling score, fat depth, ribeye area, percent KPH and calculated yield grade. The following carcass data were collected or calculated: marbling score, USDA quality grade or equivalent, hot carcass weight, ribeye area, backfat thickness, calculated yield grade, kidney-pelvic-heart fat percentage, and USDA yield grade or equivalent. The Canadian study site CBGA quality and yield grades were converted to USDA equivalents prior to analysis. Dressing percent was calculated.

[3] = Acclimation to End of Withdrawal (entire study)
[4] = Entire Study (55 to 82 days), component feeding 60 mg/hd/day
[5] = Entire Study (55 to 82 days), component feeding 75 mg/hd/day
[6] = Entire Study (55 to 82 days), component feeding 90 mg/hd/day
[7] = Entire Study (55 to 82 days), continuous 6.8 g/ton
[8] = Zilmax and Withdrawal Period, all treated groups
[9] = Zilmax and Withdrawal Periods (23 to 25 days), component feeding 60 mg/hd/day
[10] = Zilmax and Withdrawal Periods (23 to 25 days), component feeding 75 mg/hd/day
[11] = Zilmax and Withdrawal Periods (23 to 25 days), component feeding 90 mg/hd/day
[12] = Zilmax and Withdrawal Periods (23 to 25 days), continuous 6.8 g/ton

CC(C)NC1CCn2c(=O)[nH]c3cccc(c32)C1O (centres unmarked) [Zilmax, 4,5,6,7-tetrahydro-7-hydroxy-6-(isopropylamino) imidazo[4,5,1-jk]-[1]benzazepin-2(1H)-one]
ADG, component feeding groups vs continuous feeding group (finishing steers [1]; [3]): No differences
ADG, treated groups compared to the control group (finishing steers [1]; [3]): significantly higher
FE, component feeding groups vs continuous feeding group (finishing steers [1]; [3]): No differences
FE, treated groups compared to the control group (finishing steers [1]; [3]): significantly lower
DMI, among the treatment groups (finishing steers [1]; Acclimation to End of Withdrawal (entire study), P>0.51): No differences
ADG (finishing steers [1]; [4]): 4.14* lb/head/day
DMI (finishing steers [1]; [4]): 22.71 lb/head/day
FE (Feed / Gain) (finishing steers [1]; [4]): 5.64*
ADG (finishing steers [1]; [5]): 4.12* lb/head/day
DMI (finishing steers [1]; [5]): 22.75 lb/head/day
FE (Feed / Gain) (finishing steers [1]; [5]): 5.65*
ADG (finishing steers [1]; [6]): 4.13* lb/head/day
DMI (finishing steers [1]; [6]): 22.65 lb/head/day
FE (Feed / Gain) (finishing steers [1]; [6]): 5.62*
ADG (finishing steers [1]; [7]): 4.19* lb/head/day
DMI (finishing steers [1]; [7]): 22.93 lb/head/day
FE (Feed / Gain) (finishing steers [1]; [7]): 5.64*
ADG, component feeding groups vs continuous feeding group (finishing steers [1]; Zilmax and Withdrawal Period): No differences
DMI, component feeding groups compared to the control group (finishing steers [1]; Zilmax and Withdrawal Period): significantly lower
DMI, continuous feeding group vs control group (finishing steers [1]; Zilmax and Withdrawal Period): no significant difference
FE, component feeding groups vs continuous feeding group (finishing steers [1]; Zilmax and Withdrawal Period): No differences
ADG, treated groups compared to the control group (finishing steers [1]; [8]): significantly higher
FE, treated groups compared to the control group (finishing steers [1]; [8]): significantly lower
ADG (finishing steers [1]; [9]): 4.13*^(c) lb/head/day
DMI (finishing steers [1]; [9]): 22.57* lb/head/day
FE (Feed / Gain) (finishing steers [1]; [9]): 5.89*
ADG (finishing steers [1]; [10]): 3.99* lb/head/day
DMI (finishing steers [1]; [10]): 22.70* lb/head/day
FE (Feed / Gain) (finishing steers [1]; [10]): 5.99*
ADG (finishing steers [1]; [11]): 3.97* lb/head/day
DMI (finishing steers [1]; [11]): 22.39* lb/head/day
FE (Feed / Gain) (finishing steers [1]; [11]): 6.10*
ADG (finishing steers [1]; [12]): 4.23* lb/head/day
DMI (finishing steers [1]; [12]): 22.87 lb/head/day
FE (Feed / Gain) (finishing steers [1]; [12]): 5.96*
Final body weight (finishing steers [1]; component feeding 60 mg/hd/day): 1463 lb/head
Final body weight (finishing steers [1]; component feeding 75 mg/hd/day): 1459 lb/head
Final body weight (finishing steers [1]; component feeding 90 mg/hd/day): 1461 lb/head
Final body weight (finishing steers [1]; fed continuously 6.8 g/ton (90% DMB)): 1467 lb/head
Backfat thickness, among the treatment groups (finishing steers [2]; P>0.19): no significant differences
Kidney-pelvic-heart fat percentage, among the treatment groups (finishing steers [2]; P>0.19): no significant differences
USDA quality grade, among the treatment groups (finishing steers [2]; P>0.19): no significant differences
Calculated yield grade, Zilmax treated groups compared to the control group (finishing steers [2]; all treated groups): significantly lower
Dressing percentage, Zilmax treated groups compared to the control group (finishing steers [2]; all treated groups): significantly higher
Hot carcass weight, Zilmax treated groups compared to the control group (finishing steers [2]; all treated groups): significantly higher
Marbling score, Zilmax treated groups compared to the control group (finishing steers [2]; all treated groups): significantly lower
Rib eye area, Zilmax treated groups compared to the control group (finishing steers [2]; all treated groups): significantly higher
USDA yield grade score, Zilmax treated groups compared to the control group (finishing steers [2]; all treated groups): significantly lower
Calculated yield grade, component feeding groups vs continuous feeding group (finishing steers [2]; bovine, in vivo): no differences
Dressing percentage, component feeding groups vs continuous feeding group (finishing steers [2]; bovine, in vivo): no differences
Hot carcass weight, component feeding groups vs continuous feeding group (finishing steers [2]; bovine, in vivo): no differences
Marbling score, component feeding groups vs continuous feeding group (finishing steers [2]; bovine, in vivo): no differences
Rib eye area, component feeding groups vs continuous feeding group (finishing steers [2]; bovine, in vivo): no differences
USDA yield grade score, component feeding groups vs continuous feeding group (finishing steers [2]; bovine, in vivo): no differences
Backfat Thickness (finishing steers [2]; component feeding 60 mg/hd/day): 0.49 inches
Calculated Yield Grade (finishing steers [2]; component feeding 60 mg/hd/day): 2.81*
Dressing % (using final body weight shrunk 4%) (finishing steers [2]; component feeding 60 mg/hd/day): 63.89* %
Hot Carcass Weight (finishing steers [2]; component feeding 60 mg/hd/day): 904* lb/head
Kidney-Pelvic-Heart fat (finishing steers [2]; component feeding 60 mg/hd/day): 2.27%
Ribeye Area (finishing steers [2]; component feeding 60 mg/hd/day): 15.14* sq. inches
USDA Yield Grade (finishing steers [2]; component feeding 60 mg/hd/day): 2.19*
Marbling Score (finishing steers [2]; component feeding 60 mg/hd/day): 453*
Backfat Thickness (finishing steers [2]; component feeding 75 mg/hd/day): 0.48 inches
Calculated Yield Grade (finishing steers [2]; component feeding 75 mg/hd/day): 2.82*
Dressing % (using final body weight shrunk 4%) (finishing steers [2]; component feeding 75 mg/hd/day): 64.00* %
Hot Carcass Weight (finishing steers [2]; component feeding 75 mg/hd/day): 902* lb/head
Kidney-Pelvic-Heart fat (finishing steers [2]; component feeding 75 mg/hd/day): 2.26%
Ribeye Area (finishing steers [2]; component feeding 75 mg/hd/day): 15.07* sq. inches
USDA Yield Grade (finishing steers [2]; component feeding 75 mg/hd/day): 2.19*
Marbling Score (finishing steers [2]; component feeding 75 mg/hd/day): 460*
Backfat Thickness (finishing steers [2]; component feeding 90 mg/hd/day): 0.49 inches
Calculated Yield Grade (finishing steers [2]; component feeding 90 mg/hd/day): 2.79*
Dressing % (using final body weight shrunk 4%) (finishing steers [2]; component feeding 90 mg/hd/day): 64.06* %
Hot Carcass Weight (finishing steers [2]; component feeding 90 mg/hd/day): 905* lb/head
Kidney-Pelvic-Heart fat (finishing steers [2]; component feeding 90 mg/hd/day): 2.26%
Ribeye Area (finishing steers [2]; component feeding 90 mg/hd/day): 15.20* sq. inches
USDA Yield Grade (finishing steers [2]; component feeding 90 mg/hd/day): 2.18*
Marbling Score (finishing steers [2]; component feeding 90 mg/hd/day): 456*
Backfat Thickness (finishing steers [2]; continuous 6.8 g/ton): 0.49 inches
Calculated Yield Grade (finishing steers [2]; continuous 6.8 g/ton): 2.83*
Dressing % (using final body weight shrunk 4%) (finishing steers [2]; continuous 6.8 g/ton): 64.08* %
Hot Carcass Weight (finishing steers [2]; continuous 6.8 g/ton): 908* lb/head
Kidney-Pelvic-Heart fat (finishing steers [2]; continuous 6.8 g/ton): 2.27%
Ribeye Area (finishing steers [2]; continuous 6.8 g/ton): 15.14* sq. inches
USDA Yield Grade (finishing steers [2]; continuous 6.8 g/ton): 2.19*
Marbling Score (finishing steers [2]; continuous 6.8 g/ton): 457*
